Measured values published in US20090156577A1, “7-AMINO ALKYLIDENYL-HETEROCYCLIC QUINOLONES AND NAPHTHYRIDONES” (priority 2004, published 2009).
Values after ≈ are worked out from the molar mass of the structure shown. Where a name gives a salt, the structure may show the parent alone. Read-outs that look alike come from different tables or passages of the source.

Test system: pathogenic bacteria
Experiment: MIC by microdilution broth method (NCCLS M7-A4), in vitro antibacterial activity
Type: cell-based
How it was run: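 MIC read after 35 °C incubation for 16–20 h relative to drug-free growth wells. Cation-adjusted Mueller-Hinton broth with two-fold compound dilutions, organisms at roughly 5×10^4 CFU/well final. Method follows NCCLS document M7-A4.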

[1] = Staphylococcus aureus, Organism A: Staphylococcus aureus OC4172
[2] = Streptococcus pneumoniae, ATCC49619, Organism E: Streptococcus pneumoniae ATCC 49619
[3] = Streptococcus pneumoniae, Organism C: fluoroquinolone-resistant clinical isolate of Streptococcus pneumoniae (QRDR amino acid substitutions)
[4] = Streptococcus pneumoniae, Organism D: fluoroquinolone-resistant clinical isolate of Streptococcus pneumoniae (QRDR amino acid substitutions)
[5] = Staphylococcus aureus, Organism A: Staphylococcus aureus OC4172, read-out: MIC
[6] = Streptococcus pneumoniae, ATCC49619, Organism E: Streptococcus pneumoniae ATCC 49619, read-out: MIC
[7] = Streptococcus pneumoniae, Organism B: fluoroquinolone-resistant clinical isolate of Streptococcus pneumoniae (QRDR amino acid substitutions)

| Compound | MIC [1] [µg/mL] | MIC [2] [µg/mL] | MIC [3] [µg/mL] | MIC [4] [µg/mL] | MIC [5] [µg/mL] | MIC [6] [µg/mL] | MIC [7] [µg/mL] |
| --- | --- | --- | --- | --- | --- | --- | --- |
| O=C(O)c1cn(C2CC2)c2nc(N3CCC(=C(Cl)CN4CCNCC4)CC3)c(F)cc2c1=O [Compound 292, 7-[4-(1-chloro-2-piperazin-1-yl-ethylidene)-piperidin-1-yl]-1-cyclopropyl-6-fluoro-4-oxo-1,4-dihydro-[1,8]naphthyridine-3-carboxylic Acid Trifluoroacetic Acid Salt] | 1 | 4 | > 16 | 16 |  |  |  |
| O=C(O)C(F)(F)F.O=C(O)c1cn(C2CC2)c2nc(N3CCC(=C(F)CN4CCNCC4)CC3)c(F)cc2c1=O [Compound 294, 1-Cyclopropyl-6-fluoro-7-[4-(1-fluoro-2-piperazin-1-yl-ethylidene)-piperidin-1-yl]-4-oxo-1,4-dihydro-[1,8]naphthyridine-3-carboxylic Acid Trifluoroacetic Acid Salt] |  |  | > 16 | > 16 | 2 | 8 | > 16 |
| C[C@H]1COc2c(N3CCC(=C(F)CN(C)C)CC3)c(F)cc3c(=O)c(C(=O)O)cn1c23 [Compound 295, 9-[4-(2-Dimethylamino-1-fluoro-ethylidene)-piperidin-1-yl]-8-fluoro-(3S)-3-methyl-6-oxo-2,3-dihydro-6H-1-oxa-3a-aza-phenalene-5-carboxylic Acid] |  |  | 16 (≈ 36.9 µM) | 8 (≈ 18.5 µM) | 0.5 (≈ 1.15 µM) | 2 (≈ 4.61 µM) | 16 (≈ 36.9 µM) |
| C/C(CN)=C1\CCCN(c2nc3c(cc2F)c(=O)c(C(=O)O)cn3C2CC2)C1.O=C(O)C(F)(F)F [Compound 297, (Z)-7-[3-(1-Amino-2-propylidene)-piperidin-1-yl]-1-cyclopropyl-6-fluoro-4-oxo-1,4-dihydro-[1,8]naphthyridine-3-carboxylic Acid Trifluoroacetic Acid Salt] |  |  | 16 | 16 | 0.25 | 1 | 16 |
| CN(C)CC(Cl)=C1CCN(c2cc3c(cc2F)c(=O)c(C(=O)O)cn3C2CC2)CC1 [Compound 298, 7-[4-(1-Chloro-2-dimethylamino-ethylidene)-piperidin-1-yl]-1-cyclopropyl-6-fluoro-4-oxo-1,4-dihydro-quinoline-3-carboxylic Acid Trifluoroacetic Acid Salt] | 0.25 | 1 | 16 | 8 |  |  | 16 |
| CN(C)CC(F)=C1CCN(c2cc3c(cc2F)c(=O)c(C(=O)O)cn3C2CC2)CC1 [Compound 299, 1-Cyclopropyl-7-[4-(2-dimethylamino-1-fluoro-ethylidene)-piperidin-1-yl]-6-fluoro-4-oxo-1,4-dihydro-quinoline-3-carboxylic acid] |  |  | > 16 | 2 (≈ 4.79 µM) | 0.5 (≈ 1.2 µM) | 1 (≈ 2.4 µM) | 16 (≈ 38.3 µM) |
| O=C(O)c1cn(C2CC2)c2cc(N3CCC(=C(Cl)CN4CCCCC4)CC3)c(F)cc2c1=O [Compound 300, 7-[4-(1-Chloro-2-piperidin-1-yl-ethylidene)-piperidin-1-yl]-1-cyclopropyl-6-fluoro-4-oxo-1,4-dihydro-quinoline-3-carboxylic acid] |  |  | > 16 | 2 (≈ 4.22 µM) | 0.5 (≈ 1.05 µM) | 2 (≈ 4.22 µM) | > 16 |
| C/C(CN)=C1\CCCN(c2cc3c(cc2F)c(=O)c(C(=O)O)cn3C2CC2)C1 [Compound 301, (Z)-7-[3-(2-Amino-1-methyl-ethylidene)-piperidin-1-yl]-1-cyclopropyl-6-fluoro-4-oxo-1,4-dihydro-quinoline-3-carboxylic acid] |  |  | 8 (≈ 20.8 µM) | 8 (≈ 20.8 µM) | 0.12 (≈ 0.311 µM) | 0.25 (≈ 0.649 µM) | 8 (≈ 20.8 µM) |
| COc1c(N2CCC/C(=C(\C)CN)C2)c(F)cc2c(=O)c(C(=O)O)cn(C3CC3)c12 [Compound 302, (Z)-7-[3-(2-Amino-1-methyl-ethylidene)-piperidin-1-yl]-1-cyclopropyl-6-fluoro-8-methoxy-4-oxo-1,4-dihydro-quinoline-3-carboxylic acid] |  |  | ≤ 0.5 | 1 (≈ 2.41 µM) | ≤ 0.03 | ≤ 0.12 | 1 (≈ 2.41 µM) |
| COc1c(N2CCC/C(=C(\F)CN)C2)c(F)cc2c(=O)c(C(=O)O)cn(C3CC3)c12 [Compound 303, (E)-7-[3-(2-Amino-1-fluoro-ethylidene)-piperidin-1-yl]-1-cyclopropyl-6-fluoro-8-methoxy-4-oxo-1,4-dihydro-quinoline-3-carboxylic Acid Trifluoroacetic Acid Salt] |  |  | 0.12 | 0.25 | ≤ 0.015 | 0.03 | 0.25 |
| COc1c(N2CC(=C(Cl)CO)C2)c(F)cc2c(=O)c(C(=O)O)cn(C3CC3)c12 [Compound 356, 7-[3-(1-Chloro-2-hydroxy-ethylidene)-azetidin-1-yl]-1-cyclopropyl-6-fluoro-8-methoxy-4-oxo-1,4-dihydro-quinoline-3-carboxylic Acid] |  |  | > 16 | 8 (≈ 19.6 µM) | 0.06 (≈ 0.147 µM) | 0.5 (≈ 1.22 µM) | ≤ 4 |
| O=C(O)c1cn(C2CC2)c2nc(N3CC(=C(Cl)CO)C3)c(F)cc2c1=O [Compound 357, 7-[3-(1-Chloro-2-hydroxy-ethylidene)-azetidin-1-yl]-1-cyclopropyl-6-fluoro-4-oxo-1,4-dihydro-[1,8]naphthyridine-3-carboxylic Acid] |  |  | 16 (≈ 42.1 µM) | 4 (≈ 10.5 µM) | 0.25 (≈ 0.658 µM) | 1 (≈ 2.63 µM) | 8 (≈ 21.1 µM) |
| NC/C(F)=C1/CCCN(c2c(F)cc3c(=O)c(C(=O)O)cn(-c4nc(N)c(F)cc4F)c3c2Cl)C1 [Compound 358, (E)-1-(6-Amino-3,5-difluoro-pyridin-2-yl)-7-[3-(2-amino-1-fluoro-ethylidene)-piperidin-1-yl]-8-chloro-6-fluoro-4-oxo-1,4-dihydro-quinoline-3-carboxylic Acid Trifluoroacetate] | 0.12 | 0.5 | 8 | 16 |  |  | 16 |
| Nc1nc(-n2cc(C(=O)O)c(=O)c3cc(F)c(N4CCC/C(=C(/F)CO)C4)c(Cl)c32)c(F)cc1F [Compound 359, (Z)-1-(6-Amino-3,5-difluoro-pyridin-2-yl)-8-chloro-6-fluoro-7-[3-(1-fluoro-2-hydroxy-ethylidene)-piperidin-1-yl]-4-oxo-1,4-dihydroquinoline-3-carboxylic Acid Trifluoroacetate] | 0.12 | 1 | 8 | 16 |  |  |  |
| CNCC(Cl)=C1CN(c2c(F)cc3c(=O)c(C(=O)O)cn(-c4nc(N)c(F)cc4F)c3c2Cl)C1 [Compound 360, 1-(6-Amino-3,5-difluoro-pyridin-2-yl)-8-chloro-7-[3-(1-chloro-2-methylamino-ethylidene)-azetidin-1-yl]-6-fluoro-4-oxo-1,4-dihydro-quinoline-3-carboxylic Acid] |  |  | 8 (≈ 15.6 µM) | 8 (≈ 15.6 µM) | 0.06 (≈ 0.117 µM) | 0.5 (≈ 0.972 µM) | 16 (≈ 31.1 µM) |
| Nc1nc(-n2cc(C(=O)O)c(=O)c3cc(F)c(N4CC(=C(Cl)CO)C4)c(Cl)c32)c(F)cc1F [Compound 361, 1-(6-Amino-3,5-difluoro-pyridin-2-yl)-8-chloro-7-[3-(1-chloro-2-hydroxy-ethylidene)-azetidin-1-yl]-6-fluoro-4-oxo-1,4-dihydro-quinoline-3-carboxylic acid] |  |  | 0.12 (≈ 0.239 µM) | 0.06 (≈ 0.12 µM) | ≤ 0.015 | ≤ 0.015 | 0.12 (≈ 0.239 µM) |
| C[C@H]1COc2c(N3CC(=C(Cl)CO)C3)c(F)cc3c(=O)c(C(=O)O)cn1c23 [Compound 362, (S)-9-[3-(1-Chloro-2-hydroxy-ethylidene)-azetidin-1-yl]-8-fluoro-3-methyl-6-oxo-2,3-dihydro-6H-1-oxa-3a-aza-phenalene-5-carboxylic Acid] |  |  | > 16 | 8 (≈ 20.3 µM) | 0.03 (≈ 0.076 µM) | 0.5 (≈ 1.27 µM) | 8 (≈ 20.3 µM) |
| COc1c(N2CC(=C(Cl)CO)C2)c(F)cc2c(=O)c(C(=O)O)cn([C@@H]3C[C@@H]3F)c12 [Compound 363, 7-[3-(1-Chloro-2-hydroxy-ethylidene)-azetidin-1-yl]-6-fluoro-(1R,2S)-1-(2-fluoro-cyclopropyl)-8-methoxy-4-oxo-1,4-dihydro-quinoline-3-carboxylic Acid] |  |  | > 16 | 16 (≈ 37.5 µM) | 0.03 (≈ 0.0703 µM) | 0.5 (≈ 1.17 µM) | 4 (≈ 9.37 µM) |
| Cc1c(F)c(N2CC(=C(Cl)CO)C2)cc2c1c(=O)c(C(=O)O)cn2C1CC1 [Compound 364, 7-[3-(1-Chloro-2-hydroxy-ethylidene)-azetidin-1-yl]-1-cyclopropyl-6-fluoro-5-methyl-4-oxo-1,4-dihydro-quinoline-3-carboxylic Acid] |  |  | > 16 | > 16 | 0.06 (≈ 0.153 µM) | 2 (≈ 5.09 µM) | > 16 |
| C[C@H]1COc2c(N3CC(=CCN)C3)c(F)cc3c(=O)c(C(=O)O)cn1c23 [Compound 365, (S)-9-[3-(2-Amino-ethylidene)-azetidin-1-yl]-8-fluoro-3-methyl-6-oxo-2,3-dihydro-6H-1-oxa-3a-aza-phenalene-5-carboxylic Acid] |  |  | > 16 | > 16 | 0.12 (≈ 0.334 µM) | 2 (≈ 5.57 µM) |  |
| CC(CN)=C1CN(c2c(F)cc3c(=O)c(C(=O)O)cn4c3c2OC[C@@H]4C)C1 [Compound 366, (S)-9-[3-(2-Amino-1-methyl-ethylidene)-azetidin-1-yl]-8-fluoro-3-methyl-6-oxo-2,3-dihydro-6H-1-oxa-3a-aza-phenalene-5-carboxylic Acid] |  |  | > 16 | 8 (≈ 21.4 µM) | 4 (≈ 10.7 µM) | 4 (≈ 10.7 µM) |  |
